Entries after “also recorded” stand apart in the source; their conditions may differ.
Assays:
Ubc12 (E2) = assay: Western blot: transfer of UB variants to Ubc12; assay type: biochemical; conditions: 5 µM HA-tagged protein, 1 µM NAE, 1 µM Ubc12, 1 µM cullin, 1 mM ATP, 1 h, room temperature, anti-HA Western blot
Procedure: (§1) Figure 6 Transfer of phage selected UB variants to NAE (E1), Ubc12 (E2), and cullin-3. HA-tagged wt UB, wt Nedd8 and UB variants were used in the assay. In the control reaction, either Ubc12 or cullin-3 in complex with Rbx1 was missing. The blots were probed with a mouse anti-HA antibody and a goat anti-mouse IgG antibody linked to HRP.
(§2) 20 µL of the reaction mixture were loaded on a 4–15% SDS-PAGE gel (Bio-Rad). After electrophoresis, the protein bands were electroblotted onto a piece of polyvinylidene fluoride membrane (Bio-Rad). The membrane was blocked with 3% BSA in TBS buffer for 1 hour followed by incubation with 3% BSA in TBS buffer containing 1∶500 diluted 200 µg/mL anti-HA antibody (Santa Cruz Biotechnology) and 1∶10,000 diluted anti-mouse horseradish peroxidase conjugate (Pierce) for 1 hour, respectively. The membrane was then washed 5 times with TBS-T buffer and 5 times with TBS buffer followed by detection with the ECL luminescent detection kit (GE Healthcare).

cullin-3 [1] = assay: Western blot: transfer of UB variants to cullin-3; assay type: biochemical; conditions: 5 µM HA-tagged protein, 1 µM NAE, 1 µM Ubc12, 1 µM cullin, 1 mM ATP, 1 h, room temperature, anti-HA Western blot
Procedure: as §1, §2

NAE (E1) = assay: Western blot: formation of UB∼NAE thioester conjugates; assay type: biochemical; conditions: 5 µM HA-tagged protein, 1 µM NAE, 1 mM ATP, 1 h, room temperature, anti-HA Western blot
Procedure: as §1, §2

NAE [2] = target: T1, NAE (Homo sapiens, UniProt Q13564+Q8TBC4); assay: ATP/PPi exchange assay (NAE activation kinetics); assay type: biochemical; conditions: for activation by NAE: 50 µM heptameric peptide, 0.5 µM NAE, 30 min, room temperature, versus background with no peptide added; for kcat/Km: Nedd8 mimicking heptameric peptides, 0.1 µM NAE, 10–1000 µM peptide, pH 7.5, room temperature
T1 construct: made in house; host or cells: E. coli BL21(DE3)pLysS
T1 sequence (Q8TBC4 22-463 limits assumed): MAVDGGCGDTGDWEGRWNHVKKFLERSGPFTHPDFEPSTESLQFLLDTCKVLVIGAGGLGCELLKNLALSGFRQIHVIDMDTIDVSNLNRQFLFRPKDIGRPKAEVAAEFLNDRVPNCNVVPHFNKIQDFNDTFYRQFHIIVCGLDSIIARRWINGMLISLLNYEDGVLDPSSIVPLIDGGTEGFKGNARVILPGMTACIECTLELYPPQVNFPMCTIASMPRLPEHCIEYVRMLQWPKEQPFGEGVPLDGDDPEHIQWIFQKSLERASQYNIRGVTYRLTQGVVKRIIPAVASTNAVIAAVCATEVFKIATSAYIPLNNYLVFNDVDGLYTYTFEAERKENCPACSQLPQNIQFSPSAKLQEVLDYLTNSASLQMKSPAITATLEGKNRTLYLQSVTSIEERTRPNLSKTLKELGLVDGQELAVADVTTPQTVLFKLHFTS
T1 sequence (Q13564 1-534 partner): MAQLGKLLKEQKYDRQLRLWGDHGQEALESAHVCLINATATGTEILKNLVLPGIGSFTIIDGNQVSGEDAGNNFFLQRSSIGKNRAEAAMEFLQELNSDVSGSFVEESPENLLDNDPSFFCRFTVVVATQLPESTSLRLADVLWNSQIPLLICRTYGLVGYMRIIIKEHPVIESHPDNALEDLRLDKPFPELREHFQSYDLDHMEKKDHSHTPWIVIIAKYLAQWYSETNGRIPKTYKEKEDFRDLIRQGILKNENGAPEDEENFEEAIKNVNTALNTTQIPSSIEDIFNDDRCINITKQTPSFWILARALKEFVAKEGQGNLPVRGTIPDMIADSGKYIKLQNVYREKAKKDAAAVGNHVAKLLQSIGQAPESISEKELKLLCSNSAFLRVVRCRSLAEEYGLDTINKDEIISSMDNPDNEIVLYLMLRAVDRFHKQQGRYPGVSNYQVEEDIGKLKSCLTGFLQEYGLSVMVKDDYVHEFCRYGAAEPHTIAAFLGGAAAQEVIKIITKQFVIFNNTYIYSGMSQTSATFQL
From the text: We used the ATP/PPi exchange assay [28], [29] to measure the kinetics of NAE activation of UB mutants. In this assay, NAE catalyzes the condensation of UB with ATP to form a UB-AMP conjugate coupled to the release of PPi. Externally added PPi labeled with the radioactive isotope ^32P sets the reaction in reverse thus incorporating ^32PPi into ATP. Radioactive ATP formed in the reaction is captured by charcoal and quantified. The rate of ^32PPi exchange into ATP reflects the reactivities of NAE with the UB variants to form UB-AMP intermediates.
The reaction was incubated for 30 min at room temperature and then quenched by the addition of 0.5 mL slurry of charcoal in 2% trichloroacetic acid. After centrifugation, the charcoal pellet was washed 3 times each time with 1 mL 2% trichloroacetic acid, and eventually resuspended in 0.5 mL water and 3.5 mL Ultima Gold LSC-cocktail (Perkin Elmer). The radioactivity bound to charcoal was determined by liquid scintillation counting.
The reaction was incubated at room temperature for 5, 10, 15, 20 and 25 minutes before it was quenched with the addition of 0.5 mL slurry of charcoal in 2% trichloroacetic acid. The radioactivity incorporated into charcoal-bound ATP was measured by liquid scintillation counting. K1/2 and kcat values of the ATP-PPi exchange reaction were calculated by fitting the data to the Michaelis-Menten equation with the data analysis software Origin. To measure peptide activation by NAE, 0.1 µM NAE was used in the reaction with the concentration of the peptides varying from 10 µM to 1000 µM.

NAE [3] = target: T1, NAE; assay: Western blot: peptide∼NAE thioester conjugate formation; assay type: biochemical; conditions: 5 µM peptide biotin-conjugated at N-terminus, 1 µM NAE, 1 mM ATP, 1 h, room temperature, streptavidin-HRP blot
Procedure: (§3) The peptides were conjugated to biotin at their N-termini. The Uba3 subunit of NAE formed the thioester conjugate with the peptides. The Western blot was probed with streptavidin conjugated to HRP.
(§4) Biotin Conjugation of the Peptides
(§5) Heptameric peptides with the C-terminal sequences of wt UB, wt Nedd8, and UB variants from phage selection were ordered from EZBiolab (Carmel, Indiana). The peptides were further purified by HPLC to be more than 95% pure. Peptide pN1 (2 mg, […]) was added to a solution of N-hydroxysuccinimidyl-6′-(biotinamido)-6-hexanamido hexanoate (NHS-LC-LC-biotin, Pierce) (4.4 mg, 7.750 µmol) in 50 mM sodium phosphate buffer (pH 7.0, 300 µL) and DMSO (300 µL). The reaction was allowed to proceed by stirring overnight at room temperature. The reaction mixture was then purified by HPLC with a gradient of 5–85% acetonitrile in 0.1% TFA/water at a flow rate of 10 mL/min over the course of 25 minutes. Biotin was conjugated to the N-terminal amino groups of the peptides pN7 and N26 with the same procedure. The purified biotin-peptide conjugates were lyophilized, and their identities were confirmed via MALDI-TOF mass spectrometry (positive mode): biotin-pN1 (VWLSYGG), calculated: 1256.10 Da (MNa^+), found: 1254.87 Da; biotin-pN7 (VMLFYGG), calculated: 1261.19 Da (MNa^+), found:1260.49 Da; biotin-pN26 (VLALRGG), calculated: 1138.06 Da (MH^+), found:1137.78 Da.
(§6) To assay the transfer of biotin conjugated peptides to NAE, Ubc12 and cullin, 5 µM biotin labeled peptide, 1 µM NAE, 1 µM Ubc12 and 1 µM cullin were incubated with 1 mM ATP, 10 mM MgCl2 and 50 µM DTT in the TBS buffer for 1 hour at room temperature before SDS-PAGE and membrane blotting. The membrane was blocked with 3% BSA in TBS buffer for 1 hour followed by incubation with 3% BSA in TBS buffer containing 1∶10,000 diluted 1 mg/mL streptavidin-horse radish peroxidase conjugate (Pierce) for 1 hour. The membrane was then washed 5 times with TBS-T buffer and 5 times with TBS buffer followed by detection with the ECL luminescent detection kit.

Ubc12 [4] = assay: Western blot: peptide transfer to Ubc12; assay type: biochemical; conditions: 5 µM peptide biotin-conjugated at N-terminus, 1 µM NAE, 1 µM Ubc12, 1 µM cullin, 1 h, room temperature, streptavidin-HRP blot
Procedure: as §3, §4, §5, §6

cullin 3 = assay: Western blot: peptide transfer to cullin 3; assay type: biochemical; conditions: 5 µM peptide biotin-conjugated at N-terminus, 1 µM NAE, 1 µM Ubc12, 1 µM cullin, 1 h, room temperature, streptavidin-HRP blot
Procedure: as §3, §4, §5, §6

NAE [5] = target: T1, NAE; assay: Inhibition of Nedd8 transfer through the cascade: NAE conjugate; assay type: biochemical; conditions: 5–200 µM peptide, 0.5 µM NAE, 0.5 µM Ubc12, 1 µM cullin, 1 h, then 5 µM HA-Nedd8, 15 min, Western blot
From the text: as §3

Ubc12 [6] = assay: Inhibition of Nedd8 transfer to Ubc12; assay type: biochemical; conditions: 5–200 µM peptide, 0.5 µM NAE, 0.5 µM Ubc12, 1 µM cullin, 1 h, then 5 µM HA-Nedd8, 15 min, Western blot
From the text: as §3

cullin-3 [7] = assay: Inhibition of Nedd8 transfer to cullin (cullin neddylation); assay type: biochemical; conditions: 5–200 µM peptide, 0.5 µM NAE, 0.5 µM Ubc12, 1 µM cullin, 1 h, then 5 µM HA-Nedd8, 15 min, Western blot
From the text: as §3

[8] = target: T2, Nedd8 activating enzyme (NAE), heterodimer of APPBP1 and Uba3 (UniProt Q13564 1-534; Q8TBC4 33-463); assay: cell-based or functional assay
T2 sequence 1: T1 sequence (Q13564 1-534 partner)
T2 sequence 2: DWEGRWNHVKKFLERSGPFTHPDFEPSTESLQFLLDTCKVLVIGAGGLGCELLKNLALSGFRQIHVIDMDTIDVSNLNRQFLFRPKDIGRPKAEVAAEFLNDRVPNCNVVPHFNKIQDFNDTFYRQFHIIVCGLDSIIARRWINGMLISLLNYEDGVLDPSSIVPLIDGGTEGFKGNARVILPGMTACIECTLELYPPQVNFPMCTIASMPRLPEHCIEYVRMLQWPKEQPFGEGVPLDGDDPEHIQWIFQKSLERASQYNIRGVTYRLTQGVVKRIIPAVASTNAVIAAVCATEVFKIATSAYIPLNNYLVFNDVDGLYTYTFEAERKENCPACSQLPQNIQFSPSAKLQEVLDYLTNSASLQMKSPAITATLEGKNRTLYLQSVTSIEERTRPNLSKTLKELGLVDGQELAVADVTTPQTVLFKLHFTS

Molecule: N11: UB variant from phage selection, C-terminal sequence 71AAAAGG76
- transfer from NAE to Ubc12 (UB∼Ubc12 conjugates) (Ubc12 (E2)): can also be transferred from NAE to Ubc12
- transfer to cullin (cullin modification) (cullin-3 [1]): substantial cullin modification at a level similar or exceeding that of wt Nedd8; also recorded: can also be transferred through the NAE-Ubc12 cascade to modify cullin at a similar level as N26 and the wt Nedd8

Molecule: N27: UB variant from phage selection, C-terminal sequence 71YQTYSG76, Gly75 replaced by Ser
- formation of UB∼NAE conjugates (NAE (E1)): normal level of NAE activation and thioester formation with NAE
- transfer from NAE to Ubc12 (UB∼Ubc12 conjugates) (Ubc12 (E2)): does not form a UB∼Ubc12 conjugate
- transfer to cullin (cullin modification) (cullin-3 [1]): its transfer to Ubc12 and cullin is blocked

Molecule: VAAAAGG [pN11, heptameric peptide VAAAAGG derived from UB variant N11]
- activation by NAE (NAE [2]): not reactive with NAE

Molecule: VLALRGG [pN26]
- activation by NAE (NAE [2]): can be activated at a level significantly higher than the background
- formation of peptide∼NAE thioester conjugates (NAE [3]): can form thioester conjugates with NAE
- formation of peptide∼Ubc12 conjugates (Ubc12 [4]): strong activity for the formation of peptide∼Ubc12 conjugates
- transfer of peptide to cullin 3 (cullin 3): can be further transferred to cullin 3
- Nedd8 conjugates with NAE after preloading with peptide (NAE [5]): did not produce any Nedd8 conjugates with NAE, Ubc12 or cullin
- Nedd8 conjugates with Ubc12 after preloading with peptide (Ubc12 [6]): did not produce any Nedd8 conjugates with NAE, Ubc12 or cullin
- Nedd8 conjugates with cullin after preloading with peptide (cullin-3 [7]): did not produce any Nedd8 conjugates with NAE, Ubc12 or cullin

Molecule: VMLFYGG [pN7, Nedd8-mimicking heptameric peptide VMLFYGG]
- activation by NAE (NAE [2]): can be activated at a level significantly higher than the background
- kcat/Km (NAE [2]): 2670 M⁻¹ s⁻¹
- formation of peptide∼NAE thioester conjugates (NAE [3]): can form thioester conjugates with NAE; also recorded: form peptide∼NAE conjugates at a similar level as pN26
- formation of peptide∼Ubc12 conjugates (Ubc12 [4]): only has low activity for transferring to Ubc12
- transfer of peptide to cullin 3 (cullin 3): none of them can form peptide-cullin conjugates at a detectable level
- Nedd8 conjugates with NAE after preloading with peptide (NAE [5]): did not produce any Nedd8 conjugates with NAE, Ubc12 or cullin
- Nedd8 conjugates with Ubc12 after preloading with peptide (Ubc12 [6]): did not produce any Nedd8 conjugates with NAE, Ubc12 or cullin
- Nedd8 conjugates with cullin after preloading with peptide (cullin-3 [7]): did not produce any Nedd8 conjugates with NAE, Ubc12 or cullin

Molecule: VWLSYGG [pN1, Nedd8-mimicking heptameric peptide VWLSYGG]
- activation by NAE (NAE [2]): can be activated at a level significantly higher than the background
- kcat/Km (NAE [2]): 3000 M⁻¹ s⁻¹
- formation of peptide∼NAE thioester conjugates (NAE [3]): can form thioester conjugates with NAE; also recorded: form peptide∼NAE conjugates at a similar level as pN26
- formation of peptide∼Ubc12 conjugates (Ubc12 [4]): no observable formation of peptide∼Ubc12 conjugates
- transfer of peptide to cullin 3 (cullin 3): none of them can form peptide-cullin conjugates at a detectable level
- Nedd8 conjugates with NAE after preloading with peptide (NAE [5]): did not produce any Nedd8 conjugates with NAE, Ubc12 or cullin
- Nedd8 conjugates with Ubc12 after preloading with peptide (Ubc12 [6]): did not produce any Nedd8 conjugates with NAE, Ubc12 or cullin
- Nedd8 conjugates with cullin after preloading with peptide (cullin-3 [7]): did not produce any Nedd8 conjugates with NAE, Ubc12 or cullin

Molecule: VMLFYGG [peptide pN7 (70VMLFYGG76)]
- Km (K1/2) of the ATP/PPi exchange reaction catalyzed by NAE [8]: 155 µM
- kcat of the ATP/PPi exchange reaction catalyzed by NAE [8]: 0.4 s⁻¹
- kcat/Km of the ATP/PPi exchange reaction catalyzed by NAE [8]: 2670 M⁻¹ s⁻¹

Molecule: VLALRGG [peptide pN26 (70VLALRGG76)]
- kcat of the ATP/PPi exchange reaction catalyzed by NAE [8]: 0.433 s⁻¹
- kcat/Km of the ATP/PPi exchange reaction catalyzed by NAE [8]: 4830 M⁻¹ s⁻¹

Molecule: VWLSYGG [peptide pN1 (70VWLSYGG76)]
- Km (K1/2) of the ATP/PPi exchange reaction catalyzed by NAE [8]: 130 µM
- kcat of the ATP/PPi exchange reaction catalyzed by NAE [8]: 0.4 s⁻¹
- kcat/Km of the ATP/PPi exchange reaction catalyzed by NAE [8]: 3000 M⁻¹ s⁻¹

— article PMC3731359 (PLoS ONE, 2013)
